Converted amounts (≈) assume the structure as drawn. Where two headings read alike, the source gives them in different places. Where a SMILES comes first, the peptide text is derived from it. Bridges are numbered along the chain shown (N, C = ends). [ ]: non-standard residue; d: D form. The star is where a group is joined. d(aIle) = CC[C@H](C)[C@@H](N)C(=O)O; X1 = CC[C@H](C)CCCCC(=O)*; dDab = NCC[C@@H](N)C(=O)O; Octanoyl = CCCCCCCC(=O)*; Dab = NCC[C@H](N)C(=O)O
Tests used:
S. aureus 1126387 = type: cell-based, Staphylococcus aureus
Description: (§1) All minimum inhibitory concentrations (MICs) were determined according to the Clinical and Standards Laboratory Institute (CLSI) guidelines. In brief, agar plates were inoculated from glycerol stocks and incubated overnight at 35 °C. Peptide DMSO stocks were dispensed into 96-well round-bottom plates using a TECAN D300e dispenser. Colistin sulfate (Sigma-Aldrich) was dissolved in water and serially diluted in a cation-adjusted Mueller Hinton broth (10 μL per well). Final concentrations of the test compounds were 0.06 to 64 μg/mL. Inocula were prepared by direct colony suspension in NaCl at 0.5 MacFarland, which was further diluted 200-fold in cation-adjusted Mueller Hinton broth for a target inoculum of 2 × 10^5 colony forming units (CFUs)/mL. 100 μL portion of the prepared inoculum was added to each well of the prepared plates containing the test compounds. Plates were sealed with parafilm and incubated for 20 h at 35 °C. Images of all plates were recorded, and MIC was assessed visually.

S. aureus ATCC 29213 = type: cell-based, Staphylococcus aureus
Description: as §1

S. aureus UAMS-1625 = type: cell-based, Staphylococcus aureus; details: S. aureus UAMS-1625 (BV18); CLSI broth dilution, cation-adjusted Mueller Hinton broth, 20 h, 35 °C, read visually
Description: as §1

ATCC 25922 = type: cell-based, Enterococcus faecalis
Description: as §1

E. faecalis ATCC 29212 = type: cell-based, Enterococcus faecalis
Description: as §1

E. faecium ATCC 51559 = type: cell-based, Enterococcus faecium
Description: as §1

E. faecium IHMA 890472 = type: cell-based, Enterococcus faecium
Description: as §1

A. baumannii ATCC 17978 = type: cell-based, Acinetobacter baumannii
Description: as §1

A. baumannii HUMC1 = type: cell-based, Acinetobacter baumannii
Description: as §1

A. baumannii IHMA 777621 = type: cell-based, Acinetobacter baumannii
Description: as §1

E. coli 1214245 = type: cell-based, Escherichia coli
Description: as §1

E. coli 1220120 = type: cell-based, Escherichia coli
Description: as §1

E. coli ATCC 25922 = type: cell-based, Escherichia coli
Description: as §1

K. pneumoniae 1227947 = type: cell-based, Klebsiella pneumoniae
Description: as §1

K. pneumoniae 1228586 = type: cell-based, Klebsiella pneumoniae
Description: as §1

K. pneumoniae ATCC 13883 = type: cell-based, Klebsiella pneumoniae
Description: as §1

P. aeruginosa 1218019 = type: cell-based, Pseudomonas aeruginosa
Description: as §1

P. aeruginosa 1226072 = type: cell-based, Pseudomonas aeruginosa
Description: as §1

P. aeruginosa PAO1 = type: cell-based, Pseudomonas aeruginosa
Description: as §1

Rabbit red blood cells = assay: Hemolysis assay; type: cell-based; details: rabbit red blood cells in PBS, 37 °C, 1 h, absorbance at 405 nm, normalization to the Triton X-100 control; 0.25 to 128 μg/mL tested
Description: Peptides, dissolved in DMSO, were dispensed into 96-well round-bottom microplates using a TECAN D300e dispenser and subsequently diluted with 100 μL of PBS. PBS or 2% Triton X-100 was used as negative and positive controls, respectively. Rabbit red blood cells (BioConcept) were diluted in PBS to a final concentration of 2%, and 100 μL was added to each well of the prepared 96-well plates. The final concentration of the test compounds was 0.25 to 128 μg/mL. Plates were incubated at 37 °C for 1 h and afterward subjected to centrifugation at 1000g for 5 min. Then, 30 μL of supernatant was transferred to a new round-bottom plate, and absorbance was measured at 405 nm (TECAN Infinite F200). EC50s were calculated after blank subtraction and normalization to the Triton control.

HepG2 cells = assay: Cytotoxicity determination (CellTiter-Glo); type: cell-based; details: HepG2, medium without serum, 24 h, normalization to the untreated control, 1 to 128 μg/mL tested
Description: HepG2 cells were grown in EMEM (Sigma) supplemented with 2 mM glutamine and 10% fetal bovine serum (Fisher) at 37 °C, 5% CO2. 20′000 cells per well were seeded into clear tissue culture-treated 96-well plates and incubated for 24 h. Peptides, dissolved in DMSO, were dispensed into 96 deep well plates (TECAN D300e dispenser) and diluted to a final concentration of 1 to 128 μg/mL using fresh medium without serum. The next day, the old media were removed from the cells, and 200 μL of the prepared compound dilutions was added per well. Plates were incubated for another 24 h before assessing the cell viability using the CellTiter-Glo kit (Promega) according to the manufacturer’s protocol. IC50s were calculated after normalization to the untreated control.

Compound | MIC (S. aureus 1126387; 1126387, 20 h) | MIC (S. aureus ATCC 29213; ATCC 29213, 20 h) | MIC (S. aureus UAMS-1625) | MIC (ATCC 25922; ATCC 25922, 20 h) | MIC (E. faecalis ATCC 29212; ATCC 29212, 20 h) | MIC (E. faecium ATCC 51559; ATCC 51559, 20 h) | MIC (E. faecium IHMA 890472; IHMA 890472, 20 h) | MIC (A. baumannii ATCC 17978; ATCC 17978, 20 h) | MIC (A. baumannii HUMC1; HUMC1, 20 h) | MIC (A. baumannii IHMA 777621; IHMA 777621, 20 h) | MIC (E. coli 1214245; 1214245, 20 h) | MIC (E. coli 1220120; 1220120, 20 h) | MIC (E. coli ATCC 25922; ATCC 25922, 20 h) | MIC (K. pneumoniae 1227947; 1227947, 20 h) | MIC (K. pneumoniae 1228586; 1228586, 20 h) | MIC (K. pneumoniae ATCC 13883; ATCC 13883, 20 h) | MIC (P. aeruginosa 1218019; 1218019, 20 h) | MIC (P. aeruginosa 1226072; 1226072, 20 h) | MIC (P. aeruginosa PAO1; PAO1, 20 h) | IC50 on HepG2 w/o FCS (HepG2 cells) | further results
CCCCCCCC(=O)N[C@@H](C(=O)N[C@H](CCN)C(=O)NCC(=O)N[C@H](CO)C(=O)N[C@H](Cc1c[nH]c2ccccc12)C(=O)N[C@@H](CO)C(=O)N[C@@H](CCN)C(=O)N[C@H](CCN)C(=O)N[C@@H](Cc1c[nH]cn1)C(=O)N[C@@H](CCC(=O)O)C(=O)N[C@H](C(=O)N[C@@H](C(=O)N[C@@H](C)C(=O)O)[C@@H](C)CC)C(C)C)C(C)C [Oct-His9] (Octanoyl-[dV][dDab]G[dS][dW]S[Dab][dDab]HEV[d(aIle)]A-OH) | >64 mg/L | >64 mg/L | >64 mg/L | >64 mg/L | >64 mg/L | >64 mg/L | >64 mg/L | >64 mg/L | >64 mg/L | >64 mg/L | 16 mg/L (≈ 10.6 µM) | 8 mg/L (≈ 5.3 µM) | 16 mg/L (≈ 10.6 µM) | 32 mg/L (≈ 21.2 µM) | 8 mg/L (≈ 5.3 µM) | 16 mg/L (≈ 10.6 µM) | 2 mg/L (≈ 1.32 µM) | 4 mg/L (≈ 2.65 µM) | 32 mg/L (≈ 21.2 µM) | >128 mg/L | Hemolysis EC50 (Rabbit red blood cells): >128 mg/L
CCCCCCCC(=O)N[C@@H](C(=O)N[C@H](CCN)C(=O)NCC(=O)N[C@H](CO)C(=O)N[C@H](Cc1c[nH]c2ccccc12)C(=O)N[C@@H](CO)C(=O)N[C@@H](CCN)C(=O)N[C@H](CCN)C(=O)N[C@H](C(=O)N[C@@H](CCC(=O)O)C(=O)N[C@H](C(=O)N[C@@H](C(=O)N[C@@H](C)C(=O)O)[C@@H](C)CC)C(C)C)C(C)C)C(C)C [Oct-Val9] (Octanoyl-[dV][dDab]G[dS][dW]S[Dab][dDab]VEV[d(aIle)]A-OH) | >64 mg/L | >64 mg/L | >64 mg/L | >64 mg/L | 64 mg/L (≈ 43.5 µM) | 64 mg/L (≈ 43.5 µM) | >64 mg/L | 32 mg/L (≈ 21.7 µM) | 32 mg/L (≈ 21.7 µM) | 32 mg/L (≈ 21.7 µM) | 4 mg/L (≈ 2.72 µM) | 4 mg/L (≈ 2.72 µM) | 4 mg/L (≈ 2.72 µM) | 8 mg/L (≈ 5.43 µM) | 8 mg/L (≈ 5.43 µM) | 2 mg/L (≈ 1.36 µM) | 16 mg/L (≈ 10.9 µM) | 16 mg/L (≈ 10.9 µM) | 64 mg/L (≈ 43.5 µM) | >128 mg/L | Hemolysis EC50 (Rabbit red blood cells): >128 mg/L
CC[C@H](C)CCCCC(=O)N[C@@H](CCN)C(=O)N[C@H](C(=O)N[C@@H](CCN)C(=O)N[C@H]1CCNC(=O)[C@H]([C@@H](C)O)NC(=O)[C@H](CCN)NC(=O)[C@H](CCN)NC(=O)[C@H](CC(C)C)NC(=O)[C@@H](CC(C)C)NC(=O)[C@H](CCN)NC1=O)[C@@H](C)O [colistin, reference compound] (X1-[Dab]T[Dab][Dab][Dab][dL]L[Dab][Dab]T; lactam 4-C (inferred); N-terminus assumed) | – | – | >64 mg/L | – | – | – | – | – | – | – | – | – | – | – | – | – | – | – | – | >128 mg/L | MIC (S. aureus 1126387; S. aureus 1126387 (BV1402), CLSI broth dilution, cation-adjusted Mueller Hinton broth, 20 h, 35 °C, read visually): >64 mg/L; MIC (S. aureus ATCC 29213; S. aureus ATCC 29213 (BV249), CLSI broth dilution, cation-adjusted Mueller Hinton broth, 20 h, 35 °C, read visually): >64 mg/L; MIC (ATCC 25922; E. faecalis ATCC 25922 (BV99), CLSI broth dilution, cation-adjusted Mueller Hinton broth, 20 h, 35 °C, read visually): >64 mg/L; MIC (E. faecalis ATCC 29212; E. faecalis ATCC 29212 (BV29), CLSI broth dilution, cation-adjusted Mueller Hinton broth, 20 h, 35 °C, read visually): >64 mg/L; MIC (E. faecium ATCC 51559; E. faecium ATCC 51559 (BV159), CLSI broth dilution, cation-adjusted Mueller Hinton broth, 20 h, 35 °C, read visually): >64 mg/L; MIC (E. faecium IHMA 890472; E. faecium IHMA 890472 (BV144), CLSI broth dilution, cation-adjusted Mueller Hinton broth, 20 h, 35 °C, read visually): >64 mg/L; MIC (A. baumannii ATCC 17978; A. baumannii ATCC 17978 (BV160), CLSI broth dilution, cation-adjusted Mueller Hinton broth, 20 h, 35 °C, read visually): 1 mg/L (≈ 0.855 µM); MIC (A. baumannii HUMC1; A. baumannii HUMC1 (BV374), CLSI broth dilution, cation-adjusted Mueller Hinton broth, 20 h, 35 °C, read visually): 1 mg/L (≈ 0.855 µM); MIC (A. baumannii IHMA 777621; A. baumannii IHMA 777621 (BV94), CLSI broth dilution, cation-adjusted Mueller Hinton broth, 20 h, 35 °C, read visually): 64 mg/L (≈ 54.7 µM); MIC (E. coli 1214245; E. coli 1214245 (BV1469), CLSI broth dilution, cation-adjusted Mueller Hinton broth, 20 h, 35 °C, read visually): 32 mg/L (≈ 27.4 µM); MIC (E. coli 1220120; E. coli 1220120 (BV1475), CLSI broth dilution, cation-adjusted Mueller Hinton broth, 20 h, 35 °C, read visually): 0.5 mg/L (≈ 0.428 µM); MIC (E. coli ATCC 25922; E. coli ATCC 25922 (BV23), CLSI broth dilution, cation-adjusted Mueller Hinton broth, 20 h, 35 °C, read visually): 1 mg/L (≈ 0.855 µM); MIC (K. pneumoniae 1227947; K. pneumoniae 1227947 (BV1445), CLSI broth dilution, cation-adjusted Mueller Hinton broth, 20 h, 35 °C, read visually): 0.5 mg/L (≈ 0.428 µM); MIC (K. pneumoniae 1228586; K. pneumoniae 1228586 (BV1447), CLSI broth dilution, cation-adjusted Mueller Hinton broth, 20 h, 35 °C, read visually): 64 mg/L (≈ 54.7 µM); MIC (K. pneumoniae ATCC 13883; K. pneumoniae ATCC 13883 (BV306), CLSI broth dilution, cation-adjusted Mueller Hinton broth, 20 h, 35 °C, read visually): 1 mg/L (≈ 0.855 µM); MIC (P. aeruginosa 1218019; P. aeruginosa 1218019 (BV1544), colistin-resistant, CLSI broth dilution, cation-adjusted Mueller Hinton broth, 20 h, 35 °C, read visually): >64 mg/L; MIC (P. aeruginosa 1226072; P. aeruginosa 1226072 (BV1551), CLSI broth dilution, cation-adjusted Mueller Hinton broth, 20 h, 35 °C, read visually): 0.5 mg/L (≈ 0.428 µM); MIC (P. aeruginosa PAO1; P. aeruginosa PAO1 (BV34), CLSI broth dilution, cation-adjusted Mueller Hinton broth, 20 h, 35 °C, read visually): 2 mg/L (≈ 1.71 µM)

Source: PMC11106739, “Discovery and Derivatization of Tridecaptin Antibiotics with Altered Host Specificity and Enhanced Bioactivity” (ACS Chemical Biology, 2024)
